Activity data for 15 molecules are collected here from US7452887B2, “Quinoline- and isoquinoline-based compounds exhibiting ATP-utilizing enzyme inhibitory activity, and compositions, and uses thereof” (Amphora Discovery Corporation, priority 2004, dated 2008).

Test in all cases: HTS ATP-utilizing enzyme assay, off-chip mobility-shift (Caliper HTS 250)
What all share (assay type): biochemical
What all share (conditions): test compound 10 μM, kinase listed = active (greater than six-sigma from the mean activity of inactive compounds)

One experiment deals with MAPKAPK2 (Homo sapiens, UniProt P49137). A digest of the protocol: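 Single-point screen of test compound at 10 μM against MAPKAPK2 with peptide substrate in HEPES pH 7.5 buffer (Triton X-100, BSA), 2.5 h at 20-22 °C. Substrate-to-phosphopeptide ratio was read by off-chip microfluidic mobility shift; EDTA and DMSO wells defined 100% and 0% controls, hits by six-sigma limits.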

For the next experiment, the target named is T1, DYRK2 (Homo sapiens, UniProt Q92630).
T1 sequence (Q92630 1-601): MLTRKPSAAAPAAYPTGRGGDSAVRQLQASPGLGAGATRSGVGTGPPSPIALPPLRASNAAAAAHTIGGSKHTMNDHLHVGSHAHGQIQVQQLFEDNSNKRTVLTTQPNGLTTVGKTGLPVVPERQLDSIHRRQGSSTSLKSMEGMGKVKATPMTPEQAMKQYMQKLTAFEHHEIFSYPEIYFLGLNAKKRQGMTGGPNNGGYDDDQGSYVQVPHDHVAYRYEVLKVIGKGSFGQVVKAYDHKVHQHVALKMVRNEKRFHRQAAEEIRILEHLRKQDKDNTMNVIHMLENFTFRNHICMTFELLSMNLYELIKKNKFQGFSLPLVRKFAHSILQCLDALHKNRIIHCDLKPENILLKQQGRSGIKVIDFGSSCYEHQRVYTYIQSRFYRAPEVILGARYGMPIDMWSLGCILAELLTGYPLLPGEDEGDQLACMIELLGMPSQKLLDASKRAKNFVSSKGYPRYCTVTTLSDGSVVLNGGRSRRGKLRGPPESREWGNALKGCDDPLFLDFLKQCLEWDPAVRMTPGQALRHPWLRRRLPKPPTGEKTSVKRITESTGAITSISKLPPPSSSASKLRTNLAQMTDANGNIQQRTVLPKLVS
The source says:
(§1) The following procedures describe the reagent and plate preparation for a HTS of an ATP-utilizing enzyme, such as a protein kinase, run in an off-chip mobility-shift assay format. The following provides an HTS protocol for running a protein kinase HTS screen on a Caliper HTS 250 microfluidics system. The following parameters are dependent on the protein kinase used and can be determined by one skilled in the art as part of a typical assay development process. For example, the peptide substrate used can be identified from the current literature, by screening a peptide library of potential protein kinase substrates, or by other applicable means accepted in the field.
(§2) The following table provides typical screen assay parameters appropriate for a Caliper HTS 250 microfluidics system.
(§3) The reagents and buffers listed in the following table are generally applicable for developing and running an HTS screen on a human protein kinase using the Caliper HTS 250 system.
(§4) The following reagents were prepared using the previously described buffers.
(§5) A 2× Master Buffer solution was prepared by combining 200 mL of 1 M HEPES, pH 7.5, 2 mL of 10% Triton X-100, 20 mL of 10% BSA, and 778 mL of H2O.
(§6) A 2.5× Substrate Buffer solution was prepared by combining 177.408 mL of 2× Master Buffer, 0.887 mL of 1 mM peptide-X, and 176.521 mL of H2O.
(§7) A 1.55× Termination Buffer solution was prepared by combining 762.05 mL of 2× Master Buffer, 95.1 mL of 0.5 M EDTA, and 666.94 mL of H2O.
(§8) A TCB Buffer solution was prepared by combining 125 mL of 2× Master Buffer, 10 mL of 0.5 M EDTA, 6.25 mL of 4% coating reagent, 1.01 mL of 100% DMSO, and 107.74 mL H2O.
(§9) A Dye Trough solution was prepared by combining 0.5 μL of peptide-X, and 2,999.5 μL of IX Master Buffer.
(§10) A 1.06× Assay Buffer solution was prepared by combining 205.15 mL of 2× Master Buffer, and 181.92 mL of H2O.
(§11) Assays to determine the kinase inhibitory activity of compounds of the present disclosure were performed using a Caliper HTS 250 microfluidics device, Greiner U-bottom assay plates, a Multidrop for transfer of reagents, and Biomek FX (AMNCBM03) software. Initially, 2.4 μL of a 1 mM solution of a test compound in 100% DMSO was added to a well of the Greiner U-bottom plate. A single Greiner U-bottom plate having 24×16 wells could include multiple test compounds. Next, […] of 1.06× Assay Buffer was added to each well of the assay plate. Using the Biomek FX, 10 μL of 0.5 M EDTA was added by the span-8 to wells, indicated as 100% Control and 2.4 μL of 100% DMSO was added by the span-8 to wells, indicated as 0% Control. Using the Multidrop, 10 μL of 2.5× Enzyme Buffer, followed by 10 μL of 2.5× Substrate Buffer was added to each well of the assay plate. The total reaction volume in each well was 25 μL, and the concentration of the test compound was 10 μM. The assay plate was incubated for 2.5 hrs at 20° C. to 22° C. After the incubation period, using the Multidrop, 45 μL of 1.55× Termination Buffer was added to each well of the assay plate to stop the reaction. The inhibition of the ATP-utilizing enzyme, such as a particular protein kinase, was determined by measuring the ratio of the peptide substrate to phosphorylated product for each well of the assay plate using the Caliper HTS 250 system.
(§12) The use of six-sigma statistical limits represents a conservative method for declaring potential hits among targets. The six-sigma activity, as well as the mean population activity, can be different for each target enzyme. This method has an expected false positive rate, from an in-control measurement process, of one in one million.

A further experiment has as its target KIT (Homo sapiens, UniProt P10721).
Source text: as §1, §2, §3, §4, §5, §6, §7, §8, §9, §10, §11, §12

The target of the next experiment is T2, NEK2 (Homo sapiens, UniProt P51955).
T2 sequence (P51955 1-445): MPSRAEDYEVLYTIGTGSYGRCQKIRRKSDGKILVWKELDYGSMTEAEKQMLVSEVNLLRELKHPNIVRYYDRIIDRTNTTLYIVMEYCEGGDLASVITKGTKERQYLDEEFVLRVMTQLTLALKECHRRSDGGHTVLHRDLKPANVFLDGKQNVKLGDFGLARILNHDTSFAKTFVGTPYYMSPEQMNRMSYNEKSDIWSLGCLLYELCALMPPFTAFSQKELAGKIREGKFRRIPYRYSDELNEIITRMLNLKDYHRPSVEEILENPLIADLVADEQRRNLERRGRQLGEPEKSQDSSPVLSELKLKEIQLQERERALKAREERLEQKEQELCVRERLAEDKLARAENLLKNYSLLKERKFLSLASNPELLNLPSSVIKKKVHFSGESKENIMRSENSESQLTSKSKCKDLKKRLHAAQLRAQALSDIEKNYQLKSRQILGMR
Source text: as §1, §2, §3, §4, §5, §6, §7, §8, §9, §10, §11, §12

A further experiment addresses T3, PRAK (Homo sapiens, UniProt Q8IW41).
T3 sequence (Q8IW41 1-473): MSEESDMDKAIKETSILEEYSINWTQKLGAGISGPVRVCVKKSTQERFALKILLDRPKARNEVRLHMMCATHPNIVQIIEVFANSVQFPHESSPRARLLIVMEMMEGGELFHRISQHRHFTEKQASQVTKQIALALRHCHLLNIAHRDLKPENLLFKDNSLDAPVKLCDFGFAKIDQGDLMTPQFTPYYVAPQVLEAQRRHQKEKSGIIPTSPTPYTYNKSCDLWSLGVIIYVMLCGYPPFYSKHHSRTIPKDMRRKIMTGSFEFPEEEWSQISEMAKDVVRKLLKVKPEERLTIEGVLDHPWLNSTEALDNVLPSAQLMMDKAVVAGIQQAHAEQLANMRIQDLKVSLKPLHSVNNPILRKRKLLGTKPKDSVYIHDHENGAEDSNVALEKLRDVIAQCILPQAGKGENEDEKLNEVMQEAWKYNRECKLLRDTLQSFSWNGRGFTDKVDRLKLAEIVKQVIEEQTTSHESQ
Source text: as §1, §2, §3, §4, §5, §6, §7, §8, §9, §10, §11, §12

A further experiment concerns the target C-TAK1 (Homo sapiens, UniProt P27448).
Source text: as §1, §2, §3, §4, §5, §6, §7, §8, §9, §10, §11, §12

Chain of MAPKAPK2 (P49137 whole entry): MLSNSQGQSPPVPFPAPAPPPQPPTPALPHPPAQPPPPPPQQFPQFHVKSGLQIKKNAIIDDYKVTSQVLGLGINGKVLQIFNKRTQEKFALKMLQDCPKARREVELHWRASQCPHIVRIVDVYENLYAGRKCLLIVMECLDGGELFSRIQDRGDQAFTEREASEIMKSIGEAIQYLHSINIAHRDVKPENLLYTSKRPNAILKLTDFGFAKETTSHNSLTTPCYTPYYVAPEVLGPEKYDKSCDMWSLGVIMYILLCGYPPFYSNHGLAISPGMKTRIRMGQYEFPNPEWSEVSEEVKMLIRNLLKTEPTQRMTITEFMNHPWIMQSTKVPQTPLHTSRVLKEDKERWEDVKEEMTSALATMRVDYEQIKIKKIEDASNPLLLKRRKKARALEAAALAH
Chain of C-TAK1 (P27448 whole entry): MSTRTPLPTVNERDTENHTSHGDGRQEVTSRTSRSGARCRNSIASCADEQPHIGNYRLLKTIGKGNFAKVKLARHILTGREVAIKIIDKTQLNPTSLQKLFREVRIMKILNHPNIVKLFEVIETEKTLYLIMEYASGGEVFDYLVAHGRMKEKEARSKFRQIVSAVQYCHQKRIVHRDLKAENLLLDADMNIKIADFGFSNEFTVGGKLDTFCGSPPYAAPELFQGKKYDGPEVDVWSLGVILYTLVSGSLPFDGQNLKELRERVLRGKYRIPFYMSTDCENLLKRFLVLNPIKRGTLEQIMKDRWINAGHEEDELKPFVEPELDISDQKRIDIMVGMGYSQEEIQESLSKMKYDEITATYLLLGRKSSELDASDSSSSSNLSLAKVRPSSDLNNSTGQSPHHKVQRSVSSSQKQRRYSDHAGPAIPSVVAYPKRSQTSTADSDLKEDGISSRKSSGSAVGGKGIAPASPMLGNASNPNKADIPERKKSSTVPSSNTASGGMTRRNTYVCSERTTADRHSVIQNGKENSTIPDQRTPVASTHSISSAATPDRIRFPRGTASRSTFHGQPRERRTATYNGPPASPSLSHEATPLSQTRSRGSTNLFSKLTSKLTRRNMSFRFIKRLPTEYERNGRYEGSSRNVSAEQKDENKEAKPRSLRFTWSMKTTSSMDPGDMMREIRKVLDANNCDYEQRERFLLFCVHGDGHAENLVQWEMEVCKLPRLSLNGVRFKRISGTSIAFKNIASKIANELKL
Chain of KIT (P10721 26-976): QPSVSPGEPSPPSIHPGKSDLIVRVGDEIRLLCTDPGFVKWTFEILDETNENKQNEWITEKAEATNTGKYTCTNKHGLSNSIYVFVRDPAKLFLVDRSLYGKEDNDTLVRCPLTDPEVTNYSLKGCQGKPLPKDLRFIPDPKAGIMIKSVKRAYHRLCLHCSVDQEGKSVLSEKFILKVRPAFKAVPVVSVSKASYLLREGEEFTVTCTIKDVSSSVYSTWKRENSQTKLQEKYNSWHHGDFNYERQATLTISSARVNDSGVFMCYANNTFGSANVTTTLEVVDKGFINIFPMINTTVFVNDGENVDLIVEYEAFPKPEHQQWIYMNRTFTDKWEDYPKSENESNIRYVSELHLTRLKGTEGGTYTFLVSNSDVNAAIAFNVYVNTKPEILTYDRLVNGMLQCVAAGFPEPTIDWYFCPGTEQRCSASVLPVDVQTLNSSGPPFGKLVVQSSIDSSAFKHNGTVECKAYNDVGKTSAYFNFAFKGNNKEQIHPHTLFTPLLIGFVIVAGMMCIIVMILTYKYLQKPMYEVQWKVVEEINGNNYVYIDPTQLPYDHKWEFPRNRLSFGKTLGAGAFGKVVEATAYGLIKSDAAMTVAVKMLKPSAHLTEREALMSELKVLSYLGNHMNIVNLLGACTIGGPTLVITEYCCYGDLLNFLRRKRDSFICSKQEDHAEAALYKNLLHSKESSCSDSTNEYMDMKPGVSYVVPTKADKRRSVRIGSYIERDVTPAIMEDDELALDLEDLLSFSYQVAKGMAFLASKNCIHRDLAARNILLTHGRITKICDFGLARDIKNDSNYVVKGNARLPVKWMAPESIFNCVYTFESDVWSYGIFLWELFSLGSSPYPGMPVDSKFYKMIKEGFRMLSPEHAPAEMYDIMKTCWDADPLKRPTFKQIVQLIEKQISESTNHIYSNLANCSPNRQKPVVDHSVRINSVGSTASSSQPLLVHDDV

With `COc1ccc(-c2ccc3nccc(Nc4ccc(N5CCN(CCCO)CC5)cc4)c3c2)cc1` [3-(4-(4-(6-(4-methoxyphenyl)quinolin-4-ylamino)phenyl)piperazin-1-yl)propan-1-ol], the Activity entry at MAPKAPK2 was “MAPKAPK2”; at DYRK2, “DYRK2”.

On to `CN(C)C1CCN(c2ccc(Nc3ccnc4ccc(-c5ccc(C#N)cc5)cc34)cc2)CC1` [4-(4-(4-(4-(dimethylamino)piperidin-1-yl)phenylamino)quinolin-6-yl)benzonitrile], for which the Activity entry at KIT was “KIT”.

Take `N#Cc1ccc(-c2ccc3nccc(Nc4ccc(C5CCNCC5)cc4)c3c2)cc1` [4-(4-(4-(piperidin-4-yl)phenylamino)quinolin-6-yl)benzonitrile]: the Activity entry at KIT is given as “KIT”.

With `COc1ccc(-c2ccc3nccc(Nc4ccc(N5CCN(C)CC5)cc4)c3c2)cc1OC` [6-(3,4-dimethoxyphenyl)-N-(4-(4-methylpiperazin-1-yl)phenyl)quinolin-4-amine], the Activity entry on MAPKAPK2 is listed as “MAPKAPK2”; at NEK2, “NEK2”; on PRAK, “PRAK”; at DYRK2, “DYRK2”.

Regarding `COc1cccc(-c2ccc3nccc(Nc4ccc(N5CCN(C)CC5)cc4)c3c2)c1` [6-(3-methoxyphenyl)-N-(4-(4-methylpiperazin-1-yl)phenyl)quinolin-4-amine], the Activity result on NEK2 is given as “NEK2”; at PRAK, “PRAK”; at DYRK2, “DYRK2”.

As for `CCSc1ccc(-c2ccc3nccc(Nc4ccc(N5CCN(C)CC5)cc4)c3c2)cc1` [6-(4-(ethylthio)phenyl)-N-(4-(4-methylpiperazin-1-yl)phenyl)quinolin-4-amine], the Activity entry on MAPKAPK2 is “MAPKAPK2”; at NEK2, “NEK2”; at C-TAK1, “C-TAK1”; at PRAK, “PRAK”.

In the case of `CN1CCN(c2ccc(Nc3ccnc4ccc(-c5ccc(C6CCCCC6)cc5)cc34)cc2)CC1` [6-(4-cyclohexylphenyl)-N-(4-(4-methylpiperazin-1-yl)phenyl)quinolin-4-amine], the results for the Activity result at MAPKAPK2 and at C-TAK1 were “MAPKAPK2” and “C-TAK1”, respectively.

Turning to `Cc1cc(-c2ccc3nccc(Nc4ccc(N5CCN(C)CC5)cc4)c3c2)ccc1F` [6-(4-fluoro-3-methylphenyl)-N-(4-(4-methylpiperazin-1-yl)phenyl)quinolin-4-amine], the Activity entry was “MAPKAPK2” at MAPKAPK2, “NEK2” on NEK2, “C-TAK1” on C-TAK1 and “PRAK” at PRAK.

Consider `COc1ccc(-c2ccc3nccc(Nc4ccc(N5CCN(C)CC5)cc4)c3c2)cc1` [6-(4-methoxyphenyl)-N-(4-(4-methylpiperazin-1-yl)phenyl)quinolin-4-amine], for which the Activity result was “MAPKAPK2” at MAPKAPK2, “NEK2” at NEK2, “PRAK” on PRAK and “DYRK2” on DYRK2.

Take `CN1CCN(c2ccc(Nc3ccnc4ccc(-c5cccc(-c6ccccc6)c5)cc34)cc2)CC1` [6-(biphenyl-3-yl)-N-(4-(4-methylpiperazin-1-yl)phenyl)quinolin-4-amine]: the Activity entry is reported as “MAPKAPK2” at MAPKAPK2, “C-TAK1” on C-TAK1 and “PRAK” on PRAK.

For the molecule `COc1ccc(-c2ccc3nccc(Nc4ccc(N5CCN(CCN(C)C)CC5)cc4)c3c2)cc1` [N-(4-(4-(2-(dimethylamino)ethyl)piperazin-1-yl)phenyl)-6-(4-methoxyphenyl)quinolin-4-amine], the Activity result at MAPKAPK2 is reported as “MAPKAPK2”; on C-TAK1 it was “C-TAK1”; on DYRK2 it was “DYRK2”.

As to `CCCCCc1ccc(-c2ccc3nccc(Nc4ccc(N5CCN(C)CC5)cc4)c3c2)cc1` [N-(4-(4-methylpiperazin-1-yl)phenyl)-6-(4-pentylphenyl)quinolin-4-amine], the Activity entry is “C-TAK1” at C-TAK1 and “PRAK” at PRAK.

In the case of `CN1CCN(c2ccc(Nc3ccnc4ccc(-c5ccc(Oc6ccccc6)cc5)cc34)cc2)CC1` [N-(4-(4-methylpiperazin-1-yl)phenyl)-6-(4-phenoxyphenyl)quinolin-4-amine], the values for the Activity result on MAPKAPK2, on C-TAK1 and on PRAK were “MAPKAPK2”, “C-TAK1” and “PRAK”, respectively.

With `Cc1cccc(-c2ccc3nccc(Nc4ccc(N5CCN(C)CC5)cc4)c3c2)c1` [N-(4-(4-methylpiperazin-1-yl)phenyl)-6-m-tolylquinolin-4-amine], the Activity result on MAPKAPK2 is “MAPKAPK2”; on NEK2 it was “NEK2”; at PRAK, “PRAK”.

`Cc1ccc(-c2ccc3nccc(Nc4ccc(N5CCN(C)CC5)cc4)c3c2)cc1` [N-(4-(4-methylpiperazin-1-yl)phenyl)-6-p-tolylquinolin-4-amine]: the Activity entry is listed as “MAPKAPK2” on MAPKAPK2, “NEK2” at NEK2 and “PRAK” on PRAK.
